Experiments:
Test in all cases: combination Emax (second highest fraction inhibited in the dose matrix, 72 h); higher = more inhibition; extreme values may be limits of the assay
[1] = tested on: LU-139 (Small Cell Lung Carcinoma)
Method in brief: (§1)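 After 24 hours at 37°C and 5% CO2 in 1536-well plates, cells in DMEM/F12 or RPMI plus 10% FBS received two-drug dose matrices for 72 hours. Viability came from CellTiter-Glo 2.0 luminescence and was scaled as inhibition, anchored at 0 by vehicle wells and at 1 by blank wells. Combination Emax is taken as the second-highest inhibition in the matrix, and Bliss excess as the observed combination effect less EA + EB − EA·EB, with EA and EB the single-agent effects.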

[2] = tested on: CAPAN-1 (Pancreatic Carcinoma)
Method in brief: as §1

[3] = tested on: SW626 (Colorectal Carcinoma)
Method in brief: as §1

[4] = tested on: CTB-1 (B-Cell Non-Hodgkin's Lymphoma)
Method in brief: as §1

[5] = tested on: PCI-30 (Head and Neck Carcinoma)
Method in brief: as §1

[6] = tested on: SH-4 (Melanoma)
Method in brief: as §1

[7] = tested on: SUP-T1 (T-Lymphoblastic Leukemia)
Method in brief: as §1

[8] = tested on: KARPAS-231 (B-Cell Non-Hodgkin's Lymphoma)
Method in brief: as §1

[9] = tested on: COLO-829 (Melanoma)
Method in brief: as §1

[10] = tested on: Hs-633T (Other Solid Carcinomas)
Method in brief: as §1

[11] = tested on: TE-4 (Esophageal Squamous Cell Carcinoma)
Method in brief: as §1

[12] = tested on: RKO (Colorectal Carcinoma)
Method in brief: as §1

[13] = tested on: 639-V (Bladder Carcinoma)
Method in brief: as §1

[14] = tested on: NCI-H747 (Colorectal Carcinoma)
Method in brief: as §1

[15] = tested on: Mewo (Melanoma)
Method in brief: as §1

[16] = tested on: NCI-H2461 (Mesothelioma)
Method in brief: as §1

[17] = tested on: SU-DHL-6 (B-Cell Non-Hodgkin's Lymphoma)
Method in brief: as §1

[18] = tested on: SK-OV-3 (Ovarian Carcinoma)
Method in brief: as §1

[19] = tested on: 8305C (Thyroid Gland Carcinoma)
Method in brief: as §1

[20] = tested on: MHH-PREB-1 (B-Cell Non-Hodgkin's Lymphoma)
Method in brief: as §1

Row | SMILES | combination Emax [1] | combination Emax [2] | combination Emax [3] | combination Emax [4] | combination Emax [5] | combination Emax [6] | combination Emax [7] | combination Emax [8] | combination Emax [9] | combination Emax [10] | combination Emax [11] | combination Emax [12] | combination Emax [13] | combination Emax [14] | combination Emax [15] | combination Emax [16] | combination Emax [17] | combination Emax [18] | combination Emax [19] | combination Emax [20]
1 | CC1(C)CCC(CN2CCN(c3ccc(C(=O)NS(=O)(=O)c4ccc(NCC5CCOCC5)c([N+](=O)[O-])c4)c(Oc4cnc5[nH]ccc5c4)c3)CC2)=C(c2ccc(Cl)cc2)C1 [Venetoclax] + Cc1cc2ncnn2cc1Nc1ncc2c(n1)n(C1CCOCC1)c(=O)n2C [AZD7648] (first compound max 1 µM, 7x7, partner max 10 µM) | 0.439 | 0.195 | 0.136 | 0.358 | 0.224 | 0.279 | 0.602 | 0.808 | 0.143 | 0.188 | 0.228 | 0.275 | 0.244 | 0.414 | 0.509 | 0.528 | 0.853 | 0.353 | 0.385 | 0.178
2 | CC1(C)CCC(CN2CCN(c3ccc(C(=O)NS(=O)(=O)c4ccc(NCC5CCOCC5)c([N+](=O)[O-])c4)c(Oc4cnc5[nH]ccc5c4)c3)CC2)=C(c2ccc(Cl)cc2)C1 [Venetoclax] + C[C@@H]1COCCN1C2=NC(=NC(=C2)C3(CC3)[S@](=N)(=O)C)C4=C5C=CNC5=NC=C4 [AZD6738] (first compound max 1 µM, 7x7, partner max 10 µM) | 0.636 | 0.416 | 0.638 | 0.836 | 0.69 | 0.304 | 0.821 | 1 | 0.349 | 0.763 | 0.617 | 0.869 | 0.479 | 0.387 | 0.556 | 0.725 | 0.92 | 0.573 | 0.681 | 0.795
3 | Cc1c2c(nn1C)CSCc1cc(n(C)n1)CSc1cc(c3ccccc3c1)OCCCc1c(C(=O)O)n(C)c3c-2c(Cl)ccc13 [AZD5991] + C[C@@H]1COCCN1C2=NC(=NC(=C2)C3(CC3)[S@](=N)(=O)C)C4=C5C=CNC5=NC=C4 [AZD6738] (first compound max 1 µM, 7x7, partner max 10 µM) | 0.446 | 0.488 | 0.632 | 0.785 | 0.603 | 0.422 | 0.741 | 1 | 0.532 | 0.938 | 0.773 | 0.85 | 0.452 | 0.322 | 0.59 | 0.765 | 1 | 0.556 | 0.593 | 0.729
4 | Cc1c2c(nn1C)CSCc1cc(n(C)n1)CSc1cc(c3ccccc3c1)OCCCc1c(C(=O)O)n(C)c3c-2c(Cl)ccc13 [AZD5991] + C=CCn1c(=O)c2cnc(Nc3ccc(N4CCN(C)CC4)cc3)nc2n1-c1cccc(C(C)(C)O)n1 [AZD1775] (first compound max 1 µM, partner max 1 µM) | 0.555 | 0.465 | 0.559 | 0.916 | 0.317 | 0.616 | 0.847 | 1 | 0.291 | 0.711 | 0.801 | 0.69 | 0.448 | 0.598 | 0.496 | 0.712 | 1 | 0.597 | 0.646 | 0.853
5 | Cc1c2c(nn1C)CSCc1cc(n(C)n1)CSc1cc(c3ccccc3c1)OCCCc1c(C(=O)O)n(C)c3c-2c(Cl)ccc13 [AZD5991] + Cn1cnc2c(F)c(Nc3ccc(Br)cc3Cl)c(C(=O)NOCCO)cc21 [Selumetinib] (first compound max 1 µM, 7x7, partner max 3 µM) | 0.148 | 0.381 | 0.528 | 0.203 | 0.198 | 0.96 | 0.236 | 1 | 0.907 | 0.64 | 0.453 | 0.406 | 0.283 | 0.728 | 0.475 | 0.359 | 1 | 0.333 | 0.512 | 0.13
6 | CC1(C)CCC(CN2CCN(c3ccc(C(=O)NS(=O)(=O)c4ccc(NCC5CCOCC5)c([N+](=O)[O-])c4)c(Oc4cnc5[nH]ccc5c4)c3)CC2)=C(c2ccc(Cl)cc2)C1 [Venetoclax] + Cn1cnc2c(F)c(Nc3ccc(Br)cc3Cl)c(C(=O)NOCCO)cc21 [Selumetinib] (first compound max 1 µM, 7x7, partner max 3 µM) | 0.307 | 0.314 | 0.507 | 0.105 | 0.206 | 0.872 | 0.426 | 0.812 | 0.426 | 0.228 | 0.114 | 0.441 | 0.27 | 0.717 | 0.528 | 0.444 | 0.88 | 0.137 | 0.397 | 0.147
7 | CC1(C)CCC(CN2CCN(c3ccc(C(=O)NS(=O)(=O)c4ccc(NCC5CCOCC5)c([N+](=O)[O-])c4)c(Oc4cnc5[nH]ccc5c4)c3)CC2)=C(c2ccc(Cl)cc2)C1 [Venetoclax] + C=CCn1c(=O)c2cnc(Nc3ccc(N4CCN(C)CC4)cc3)nc2n1-c1cccc(C(C)(C)O)n1 [AZD1775] (first compound max 1 µM, partner max 1 µM) | 0.831 | 0.45 | 0.647 | 0.897 | 0.736 | 0.573 | 0.812 | 1 | 0.235 | 0.719 | 0.555 | 0.88 | 0.428 | 0.479 | 0.621 | 0.731 | 0.941 | 0.74 | 0.639 | 0.846
8 | CC1(C)CCC(CN2CCN(c3ccc(C(=O)NS(=O)(=O)c4ccc(NCC5CCOCC5)c([N+](=O)[O-])c4)c(Oc4cnc5[nH]ccc5c4)c3)CC2)=C(c2ccc(Cl)cc2)C1 [Venetoclax] + CCN(CCO)CCCOc1ccc2c(Nc3cc(CC(=O)Nc4cccc(F)c4)[nH]n3)ncnc2c1 [AZD2811] (first compound max 1 µM, 7x7, partner max 1 µM) | 0.668 | 0.206 | 0.212 | 0.59 | 0.229 | 0.241 | 0.614 | 1 | 0.127 | 0.217 | 0.191 | 0.27 | 0.248 | 0.246 | 0.434 | 0.422 | 0.877 | 0.205 | 0.354 | 0.187
9 | CN(CCO)CC[C@H](CSc1ccccc1)Nc1ccc(S(=O)(=O)NC(=O)c2ccc(N3CCC([C@@H](O)c4ccccc4-c4ccc(Cl)cc4)CC3)cc2)cc1S(=O)(=O)C(F)(F)F [AZD4320] + CN(C)CCCOc1ccc(-c2ccc3ncc4c(c3c2)n(C2CCOCC2)c(=O)n4C)cn1 [AZD0156] (first compound max 1 µM, 7x7, partner max 1 µM) | 0.923 | 0.145 | 0.573 | 0.206 | 0.158 | 0.16 | 0.385 | 0.997 | 0.0619 | 0.163 | 0.0906 | 0.122 | 0.19 | 0.311 | 0.147 | 0.259 | 0.986 | 0.346 | 0.559 | 0.205
10 | CC1(C)CCC(CN2CCN(c3ccc(C(=O)NS(=O)(=O)c4ccc(NCC5CCOCC5)c([N+](=O)[O-])c4)c(Oc4cnc5[nH]ccc5c4)c3)CC2)=C(c2ccc(Cl)cc2)C1 [Venetoclax] + COc1cc(Nc2ncc3c(n2)-c2ccc(Cl)cc2C(c2c(F)cccc2OC)=NC3)ccc1C(=O)O [Alisertib] (first compound max 1 µM, 7x7, partner max 10 µM) | 0.738 | 0.28 | 0.314 | 0.75 | 0.218 | 0.146 | 0.611 | 1 | 0.252 | 0.44 | 0.194 | 0.487 | 0.752 | 0.419 | 0.416 | 0.459 | 0.96 | 0.315 | 0.627 | 0.199
11 | Cc1c2c(nn1C)CSCc1cc(n(C)n1)CSc1cc(c3ccccc3c1)OCCCc1c(C(=O)O)n(C)c3c-2c(Cl)ccc13 [AZD5991] + CCN(CCO)CCCOc1ccc2c(Nc3cc(CC(=O)Nc4cccc(F)c4)[nH]n3)ncnc2c1 [AZD2811] (first compound max 1 µM, 7x7, partner max 1 µM) | 0.409 | 0.206 | 0.325 | 0.641 | 0.284 | 0.336 | 0.419 | 1 | 0.269 | 0.421 | 0.575 | 0.349 | 0.368 | 0.311 | 0.366 | 0.335 | 1 | 0.301 | 0.365 | 0.144
12 | CCN(CCO)CCCOc1ccc2c(Nc3cc(CC(=O)Nc4cccc(F)c4)[nH]n3)ncnc2c1 [AZD2811] + C[C@@H]1COCCN1C2=NC(=NC(=C2)C3(CC3)[S@](=N)(=O)C)C4=C5C=CNC5=NC=C4 [AZD6738] (first compound max 1 µM, 7x7, partner max 10 µM) | 0.299 | 0.442 | 0.581 | 0.751 | 0.581 | 0.31 | 0.777 | 0.825 | 0.219 | 0.885 | 0.372 | 0.853 | 0.339 | 0.306 | 0.49 | 0.739 | 0.446 | 0.547 | 0.567 | 0.797

— the supplement of paper PMC11061612
